# Results from patent US20260137703A1, “2-AMINO-PYRIDO[2,3-D]PYRIMIDIN-7(8H)-ONE AND 7-AMINO-1-PYRIMIDO[4,5-D]PYRIMIDIN-2(1 H)-ONE DERIVATIVES AS EGFR INHIBITORS FOR THE TREATMENT OF CANCER” (Cancer Research Technology Limited, priority 2022, published 2026).
# How the values were obtained:
# [1] = target: T1, Phospho-EGFR (Tyr1068) in H1975 cells (Homo sapiens, UniProt P00533, L858R/T790M); assay: HTRF pEGFR/total EGFR in H1975 cells; assay type: cell-based; settings: ratio pEGFR/total EGFR, compound 3 hours
# T1 construct: host or cells: H1975
# Method in brief: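 Readout is the phospho-EGFR (Tyr1068) to total EGFR HTRF ratio, expressed relative to 0 μM control. Adhered H1975 cells were exposed to compound for 3 hours at 0.1% DMSO, duplicate wells, then lysed for 30 min at room temperature before two-wavelength fluorescence reading.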
# [2] = target: T2, Phospho-EGFR (Tyr1068) in H1975 C797S cells (CRISPR-edited EGFR C797S) (Homo sapiens, UniProt P00533, C797S/L858R/T790M); assay: HTRF pEGFR/total EGFR in H1975 C797S cells; assay type: cell-based; settings: ratio pEGFR/total EGFR, compound 3 hours
# T2 construct: host or cells: H1975 C797S (CRISPR-edited)
# Method in brief: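 Readout is the HTRF-measured Tyr1068 phospho-EGFR to total EGFR ratio, normalised to the 0 μM control as percent. Preceding this, CRISPR-edited H1975 C797S cells, plated 24 h earlier, were exposed 3 h to duplicate compound doses in medium with 0.1% DMSO, then lysed on a shaker.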
# [3] = target: T3, Phospho-EGFR (Tyr1068) in A431 cells (Homo sapiens, UniProt P00533); assay: HTRF pEGFR/total EGFR in A431 cells with EGF stimulation; assay type: cell-based; settings: ratio pEGFR/total EGFR, compound 2.5 hours then 100 ng/ml EGF 30 mins
# T3 construct: endogenous in cells; host or cells: A431
# Method in brief: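 Values are pEGFR(Tyr1068)/total EGFR HTRF ratios (665/620 nm) given as percent of the 0 μM control. Adhered A431 cells (20,000 per well, 24 h) had 2.5 h compound pretreatment in 0.1% DMSO, then 30 min of 100 ng/ml EGF before lysis.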
# [4] = target: CtermHisTag-mEGFR Wild type (Homo sapiens, UniProt P00533); assay: biochemical
# CtermHisTag-mEGFR Wild type, sequence (P00533 whole entry): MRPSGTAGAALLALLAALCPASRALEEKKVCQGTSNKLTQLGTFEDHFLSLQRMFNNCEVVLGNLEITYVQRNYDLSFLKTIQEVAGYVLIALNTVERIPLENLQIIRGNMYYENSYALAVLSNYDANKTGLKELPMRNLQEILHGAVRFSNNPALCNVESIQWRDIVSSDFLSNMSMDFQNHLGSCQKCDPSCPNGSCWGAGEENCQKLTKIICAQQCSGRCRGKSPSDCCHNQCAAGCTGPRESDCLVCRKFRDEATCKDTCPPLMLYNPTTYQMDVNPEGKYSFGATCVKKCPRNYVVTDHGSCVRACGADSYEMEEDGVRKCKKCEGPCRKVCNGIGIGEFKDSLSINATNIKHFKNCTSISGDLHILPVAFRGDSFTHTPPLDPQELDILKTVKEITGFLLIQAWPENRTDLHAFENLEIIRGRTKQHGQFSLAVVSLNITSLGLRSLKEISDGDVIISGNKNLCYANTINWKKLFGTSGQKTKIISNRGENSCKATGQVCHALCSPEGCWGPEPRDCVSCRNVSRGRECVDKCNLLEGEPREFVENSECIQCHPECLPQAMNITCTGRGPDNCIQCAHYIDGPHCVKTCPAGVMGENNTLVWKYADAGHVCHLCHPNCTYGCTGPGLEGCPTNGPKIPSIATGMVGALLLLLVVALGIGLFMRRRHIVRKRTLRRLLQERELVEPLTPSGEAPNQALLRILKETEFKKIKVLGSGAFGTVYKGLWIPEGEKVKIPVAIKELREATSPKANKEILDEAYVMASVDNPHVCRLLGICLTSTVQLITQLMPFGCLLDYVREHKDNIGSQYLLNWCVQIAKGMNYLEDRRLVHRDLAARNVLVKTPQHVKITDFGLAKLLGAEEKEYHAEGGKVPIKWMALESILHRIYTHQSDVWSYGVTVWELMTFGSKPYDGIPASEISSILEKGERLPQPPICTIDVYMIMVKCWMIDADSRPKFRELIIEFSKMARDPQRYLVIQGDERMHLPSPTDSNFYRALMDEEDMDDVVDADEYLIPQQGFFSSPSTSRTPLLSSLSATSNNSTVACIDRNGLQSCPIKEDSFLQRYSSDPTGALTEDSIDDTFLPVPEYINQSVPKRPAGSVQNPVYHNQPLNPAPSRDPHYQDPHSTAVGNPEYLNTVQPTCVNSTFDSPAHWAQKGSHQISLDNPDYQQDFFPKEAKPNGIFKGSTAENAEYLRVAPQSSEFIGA
# T1 sequence (P00533 25-1210 T790M/L858R): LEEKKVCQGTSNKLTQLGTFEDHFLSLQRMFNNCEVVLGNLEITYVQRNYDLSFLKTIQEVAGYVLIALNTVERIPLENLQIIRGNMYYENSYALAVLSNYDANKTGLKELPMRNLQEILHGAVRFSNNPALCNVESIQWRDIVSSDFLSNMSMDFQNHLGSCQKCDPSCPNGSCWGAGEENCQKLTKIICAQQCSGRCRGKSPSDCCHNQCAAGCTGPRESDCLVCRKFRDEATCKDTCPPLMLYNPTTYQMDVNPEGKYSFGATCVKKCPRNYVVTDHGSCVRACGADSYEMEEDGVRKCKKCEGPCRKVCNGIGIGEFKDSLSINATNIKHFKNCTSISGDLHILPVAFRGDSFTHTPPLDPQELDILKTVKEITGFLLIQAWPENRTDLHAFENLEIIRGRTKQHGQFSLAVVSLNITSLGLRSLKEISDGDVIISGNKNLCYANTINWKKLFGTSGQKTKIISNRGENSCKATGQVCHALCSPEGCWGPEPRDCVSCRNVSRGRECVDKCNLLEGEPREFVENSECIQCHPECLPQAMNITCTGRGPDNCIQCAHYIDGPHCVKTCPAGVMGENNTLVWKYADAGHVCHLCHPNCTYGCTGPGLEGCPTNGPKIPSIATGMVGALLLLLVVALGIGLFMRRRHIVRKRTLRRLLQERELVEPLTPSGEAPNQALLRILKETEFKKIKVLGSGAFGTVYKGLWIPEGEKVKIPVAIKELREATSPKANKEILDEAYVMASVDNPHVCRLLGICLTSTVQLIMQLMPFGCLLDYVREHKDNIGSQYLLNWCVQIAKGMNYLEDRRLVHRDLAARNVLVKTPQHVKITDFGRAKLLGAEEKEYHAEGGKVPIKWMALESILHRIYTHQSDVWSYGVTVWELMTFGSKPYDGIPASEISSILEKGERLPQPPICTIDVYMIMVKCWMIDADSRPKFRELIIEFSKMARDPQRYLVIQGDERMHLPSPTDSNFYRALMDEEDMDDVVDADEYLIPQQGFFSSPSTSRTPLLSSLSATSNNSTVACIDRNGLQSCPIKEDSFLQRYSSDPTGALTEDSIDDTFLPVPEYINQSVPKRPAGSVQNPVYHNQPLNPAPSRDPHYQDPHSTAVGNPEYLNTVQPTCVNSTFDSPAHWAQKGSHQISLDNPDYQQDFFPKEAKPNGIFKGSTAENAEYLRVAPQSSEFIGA
# T2 sequence (P00533 25-1210 T790M/C797S/L858R): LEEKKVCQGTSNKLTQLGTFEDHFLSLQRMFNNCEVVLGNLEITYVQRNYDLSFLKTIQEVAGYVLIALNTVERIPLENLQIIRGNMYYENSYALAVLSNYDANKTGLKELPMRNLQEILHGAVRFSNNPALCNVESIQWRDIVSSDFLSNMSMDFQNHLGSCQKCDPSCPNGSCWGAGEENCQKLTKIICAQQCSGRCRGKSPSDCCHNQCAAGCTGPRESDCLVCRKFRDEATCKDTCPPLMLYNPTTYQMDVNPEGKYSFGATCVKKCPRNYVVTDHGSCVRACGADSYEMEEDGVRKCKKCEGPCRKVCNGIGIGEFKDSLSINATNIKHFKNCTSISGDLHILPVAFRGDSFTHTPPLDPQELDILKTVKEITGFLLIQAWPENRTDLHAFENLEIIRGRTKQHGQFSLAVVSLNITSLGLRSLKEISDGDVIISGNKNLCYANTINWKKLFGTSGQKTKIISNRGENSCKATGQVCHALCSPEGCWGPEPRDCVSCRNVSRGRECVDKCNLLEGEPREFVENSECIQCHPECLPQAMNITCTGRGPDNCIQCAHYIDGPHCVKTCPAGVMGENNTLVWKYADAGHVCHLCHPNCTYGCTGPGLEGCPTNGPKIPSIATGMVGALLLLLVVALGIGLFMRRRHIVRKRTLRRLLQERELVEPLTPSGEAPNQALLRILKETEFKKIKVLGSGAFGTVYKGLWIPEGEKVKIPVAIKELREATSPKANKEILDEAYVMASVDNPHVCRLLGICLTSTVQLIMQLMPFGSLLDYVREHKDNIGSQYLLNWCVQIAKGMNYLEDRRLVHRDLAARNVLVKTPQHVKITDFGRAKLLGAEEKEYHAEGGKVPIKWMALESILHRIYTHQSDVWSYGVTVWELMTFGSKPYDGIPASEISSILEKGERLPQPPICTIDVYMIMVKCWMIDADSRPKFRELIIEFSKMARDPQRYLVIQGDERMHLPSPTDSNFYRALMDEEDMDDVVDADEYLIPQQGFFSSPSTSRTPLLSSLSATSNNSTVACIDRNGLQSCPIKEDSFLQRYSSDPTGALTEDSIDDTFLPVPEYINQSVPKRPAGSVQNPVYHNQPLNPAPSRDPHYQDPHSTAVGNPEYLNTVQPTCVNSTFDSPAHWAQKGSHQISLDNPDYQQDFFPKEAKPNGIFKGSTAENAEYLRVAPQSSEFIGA
# T3 sequence (P00533 25-1210): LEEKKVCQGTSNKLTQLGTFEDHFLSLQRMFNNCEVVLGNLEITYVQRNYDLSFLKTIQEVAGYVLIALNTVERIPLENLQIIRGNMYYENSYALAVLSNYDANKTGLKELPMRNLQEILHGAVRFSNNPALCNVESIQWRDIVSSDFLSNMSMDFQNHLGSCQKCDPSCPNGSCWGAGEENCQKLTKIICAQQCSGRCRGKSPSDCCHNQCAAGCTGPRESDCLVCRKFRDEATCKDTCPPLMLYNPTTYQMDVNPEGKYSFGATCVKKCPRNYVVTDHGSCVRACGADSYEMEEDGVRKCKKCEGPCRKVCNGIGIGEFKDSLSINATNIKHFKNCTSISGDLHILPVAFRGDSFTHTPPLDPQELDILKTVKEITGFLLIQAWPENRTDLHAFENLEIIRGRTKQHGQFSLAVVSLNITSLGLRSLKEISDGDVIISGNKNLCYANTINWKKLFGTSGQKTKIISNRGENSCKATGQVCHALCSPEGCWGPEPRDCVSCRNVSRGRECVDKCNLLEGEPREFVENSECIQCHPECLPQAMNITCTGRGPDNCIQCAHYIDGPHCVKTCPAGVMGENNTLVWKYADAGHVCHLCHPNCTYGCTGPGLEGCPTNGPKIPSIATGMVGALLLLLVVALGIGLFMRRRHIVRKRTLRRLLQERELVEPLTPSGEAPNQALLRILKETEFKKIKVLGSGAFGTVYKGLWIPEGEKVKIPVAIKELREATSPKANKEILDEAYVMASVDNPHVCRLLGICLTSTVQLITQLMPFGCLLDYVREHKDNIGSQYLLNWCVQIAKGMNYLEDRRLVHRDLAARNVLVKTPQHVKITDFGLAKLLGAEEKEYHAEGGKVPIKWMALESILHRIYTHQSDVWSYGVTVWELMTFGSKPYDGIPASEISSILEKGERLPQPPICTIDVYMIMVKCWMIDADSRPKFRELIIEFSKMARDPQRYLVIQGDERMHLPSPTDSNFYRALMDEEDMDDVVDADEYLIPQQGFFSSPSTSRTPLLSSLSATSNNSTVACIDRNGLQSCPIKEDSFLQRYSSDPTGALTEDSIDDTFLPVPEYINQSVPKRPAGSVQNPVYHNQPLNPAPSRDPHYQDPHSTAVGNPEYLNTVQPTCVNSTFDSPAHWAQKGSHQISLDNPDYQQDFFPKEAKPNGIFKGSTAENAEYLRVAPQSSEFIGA
IC50 [1] [nM],IC50 [2] [nM],IC50 [3] [nM],IC50 [4] [nM],Structure (SMILES)
< 500,< 500,1000 to 3000,< 1000,"C#Cc1cc(=O)n(C)c2nc(Nc3ccc(N4CCN(C)CC4)c(OCCC(C)C)c3)ncc12 [Example 216, 5-Ethynyl-2-((3-(isopentyloxy)-4-(4-methylpiperazin-1-yl)phenyl)amino)-8-methylpyrido[2,3-d]pyrimidin-7(8H)-one]"
< 500,< 500,1000 to 3000,< 1000,"C#Cc1cc(=O)n(C)c2nc(Nc3ccc(N4CCN(C)CC4)c(NC(=O)CC4CCCC4)c3)ncc12 [Example 217, 2-Cyclopentyl-N-(5-((5-ethynyl-8-methyl-7-oxo-7,8-dihydropyrido[2,3-d]pyrimidin-2-yl)amino)-2-(4-methylpiperazin-1-yl)phenyl)acetamide]"
1000 to 3000,> 3000,> 3000,< 1000,C#Cc1cc(=O)n(C)c2nc(Nc3ccc(N4CCN(C)CC4)c(S(=O)(=O)NCC4CCCC4)c3)ncc12 [Example 218]
500 to 1000,500 to 1000,> 3000,< 1000,"C#Cc1cc(=O)n(C)c2nc(Nc3ccc(N4CCN(C)CC4)c(NC(=O)NC4CCCC4)c3)ncc12 [Example 219, 3-Cyclopentyl-1-[5-({5-ethynyl-8-methyl-7-oxopyrido[2,3-d]pyrimidin-2-yl}amino)-2-(4-methylpiperazin-1-yl)phenyl]urea]"
< 500,< 500,1000 to 3000,< 1000,"C#Cc1cc(=O)n(C)c2nc(Nc3ccc(N4CCN(C)CC4)c(OCCc4ccnn4C)c3)ncc12 [Example 220, 5-Ethynyl-8-methyl-2-((3-(2-(1-methyl-1H-pyrazol-5-yl)ethoxy)-4-(4-methylpiperazin-1-yl)phenyl)amino)pyrido[2,3-d]pyrimidin-7(8H)-one]"
500 to 1000,1000 to 3000,> 3000,1000 to 10000,"C#Cc1cc(=O)n(C)c2nc(Nc3ccc(N4CCN(C)CC4)c(C(=O)NCC4CCCC4)c3)ncc12 [Example 221, N-(Cyclopentylmethyl)-5-({5-ethynyl-8-methyl-7-oxopyrido[2,3-d]pyrimidin-2-yl}amino)-2-(4-methylpiperazin-1-yl)benzamide]"
< 500,< 500,1000 to 3000,< 1000,"C#Cc1cc(=O)n2c3nc(ncc13)Nc1ccc(N3CCN(C)CC3)c(c1)NC(=O)CCC2 [Example 222, 1^5-ethynyl-3^4-(4-methylpiperazin-1-yl)-1^7,1^8-dihydro-2,4-diaza-1(2,8)-pyrido[2,3-d]pyrimidina-3(1,3)-benzenacyclooctaphane-1^7,5-dione]"
< 500,< 500,1000 to 3000,< 1000,"C#Cc1cc(=O)n2c3nc(ncc13)Nc1ccc(N3CCN(C)CC3)c(c1)CN(C)C(=O)CC2 [Example 223, 1^5-Ethynyl-5-methyl-3^4-(4-methylpiperazin-1-yl)-1^7,1^8-dihydro-2,5-diaza-1(2,8)-pyrido[2,3-d]pyrimidina-3(1,3)-benzenacyclooctaphane-1^7,6-dione]"
> 3000,> 3000,> 3000,> 10000,"C#Cc1cc(=O)n2c3nc(ncc13)Nc1ccc(N3CCN(C)CC3)c(c1)C(=O)NCCC2 [Example 224, 1^5-ethynyl-3^4-(4-methylpiperazin-1-yl)-1^7,1^8-dihydro-2,5-diaza-1(2,8)-pyrido[2,3-d]pyrimidina-3(1,3)-benzenacyclooctaphane-1^7,4-dione]"

# More lines, now with the values behind:
Structure (SMILES),IC50 [1] [nM],IC50 [2] [nM],IC50 [3] [nM],IC50 [4] [nM]
"C#Cc1cc(=O)n2c3nc(ncc13)Nc1ccc(N3CCN(C)CC3)c(c1)NCCCC2 [Example 198, 1^5-Ethynyl-3^4-(4-methylpiperazin-1-yl)-1^7, 1^8-dihydro-2,4-diaza-1(2,8)-pyrido[2,3-d]pyrimidina-3(1,3)-benzenacyclooctaphan-1^7-one]",500 to 1000,< 500,> 3000,> 10000
"C#Cc1cc(=O)n2c3nc(ncc13)Nc1ccc(N3CCN(C)CC3)c(c1)CNCCC2 [Example 199, 1^5-Ethynyl-3^4-(4-methylpiperazin-1-yl)-1^7,1^8-dihydro-2,5-diaza-1(2,8)-pyrido[2,3-d]pyrimidina-3(1,3)-benzenacyclooctaphan-1^7-one]",> 3000,> 3000,> 3000,> 10000
"C#Cc1cc(=O)n2c3nc(ncc13)Nc1ccc(N3CCN(C)CC3)c(c1)OCCCCC2 [Example 200, 1^5-Ethynyl-34-(4-methylpiperazin-1-yl)-1^7,1^8-dihydro-4-oxa-2-aza-1(2,8)-pyrido[2,3-d]pyrimidina-3(1,3)-benzenacyclononaphan-17-one]",< 500,< 500,< 500,< 1000
C#Cc1cc(=O)[nH]c2nc(Nc3ccc(N4CCN(C)CC4)c(CNC(=O)C=C)c3)ncc12 [Example 201],< 500,500 to 1000,> 3000,< 1000
C#Cc1cc(=O)n(C2CCCC2)c2nc(Nc3cccc(N(C)[C@H]4C[C@H](CS(C)(=O)=O)C4)c3)ncc12 [Example 205],> 3000,> 3000,> 3000,< 1000
C#Cc1cc(=O)n(C2CCCC2)c2nc(Nc3cccc(N(C)[C@H]4CC[C@H](CS(C)(=O)=O)CC4)c3)ncc12 [Example 206],> 3000,> 3000,> 3000,< 1000
"C#Cc1cc(=O)n(C)c2nc(Nc3ccc(N4CCN(C)CC4)c(OCCC)c3)ncc12 [Example 207, 5-Ethynyl-8-methyl-2-((4-(4-methylpiperazin-1-yl)-3-propoxyphenyl)amino)pyrido[2,3-d]pyrimidin-7(8H)-one]",< 500,< 500,500 to 1000,< 1000
"C#Cc1cc(=O)n(C)c2nc(Nc3ccc(N4CCN(C)CC4)c(OC)c3)ncc12 [Example 208, 5-Ethynyl-2-((3-methoxy-4-(4-methylpiperazin-1-yl)phenyl)amino)-8-methylpyrido[2,3-d]pyrimidin-7(8H)-one]",< 500,< 500,1000 to 3000,< 1000
"C#Cc1cc(=O)n(C)c2nc(Nc3ccc(N4CCN(C)CC4)c(OCCC4CCCC4)c3)ncc12 [Example 209, 2-((3-(2-Cyclopentylethoxy)-4-(4-methylpiperazin-1-yl)phenyl)amino)-5-ethynyl-8-methylpyrido[2,3-d]pyrimidin-7(8H)-one]",< 500,< 500,< 500,< 1000
"C#Cc1cc(=O)n(Cc2ccn(C)n2)c2nc(Nc3ccc(N4CCN(C)CC4)c(OCCC4CCCC4)c3)ncc12 [Example 210, 2-((3-(2-Cyclopentylethoxy)-4-(4-methylpiperazin-1-yl)phenyl)amino)-5-ethynyl-8-((1-methyl-1H-pyrazol-3-yl)methyl)pyrido[2,3-d]pyrimidin-7(8H)-one]",< 500,< 500,> 3000,< 1000
"C#Cc1cc(=O)n(C)c2nc(Nc3ccc(N4CCN(C)CC4)c(OCC4CCCC4)c3)ncc12 [Example 211, 2-((3-(Cyclopentylmethoxy)-4-(4-methylpiperazin-1-yl)phenyl)amino)-5-ethynyl-8-methylpyrido[2,3-d]pyrimidin-7(8H)-one]",< 500,< 500,> 3000,< 1000
"C#Cc1cc(=O)n(C)c2nc(Nc3ccc(N4CCN(C)CC4)c(OCCCC4CCCC4)c3)ncc12 [Example 212, 2-((3-(3-Cyclopentylpropoxy)-4-(4-methylpiperazin-1-yl)phenyl)amino)-5-ethynyl-8-methylpyrido[2,3-d]pyrimidin-7(8H)-one]",< 500,< 500,> 3000,< 1000
"C#Cc1cc(=O)n(C)c2nc(Nc3ccc(N4CCN(C)CC4)c(OCCC4CCCCC4)c3)ncc12 [Example 213, 2-((3-(2-Cyclohexylethoxy)-4-(4-methylpiperazin-1-yl)phenyl)amino)-5-ethynyl-8-methylpyrido[2,3-d]pyrimidin-7(8H)-one]",< 500,500 to 1000,1000 to 3000,< 1000
"C#Cc1cc(=O)n(C)c2nc(Nc3ccc(N4CCN(C)CC4)c(OCCc4ccccc4)c3)ncc12 [Example 214, 5-Ethynyl-8-methyl-2-((4-(4-methylpiperazin-1-yl)-3-phenethoxyphenyl)amino)pyrido[2,3-d]pyrimidin-7(8H)-one]",< 500,< 500,1000 to 3000,< 1000
"C#Cc1cc(=O)n(C)c2nc(Nc3ccc(N4CCN(C)CC4)c(OC4CCCC4)c3)ncc12 [Example 215, 2-((3-(Cyclopentyloxy)-4-(4-methylpiperazin-1-yl)phenyl)amino)-5-ethynyl-8-methylpyrido[2,3-d]pyrimidin-7(8H)-one]",< 500,< 500,1000 to 3000,< 1000
